The values below come from ChEMBL document CHEMBL1138868, “Interpreting steep dose-response curves in early inhibitor discovery” (J Med Chem, 2006).

Experiment [1] has as its target T1, Beta-lactamase (Escherichia coli K-12, UniProt P00811). The experiment is described as follows: Inhibition of 10 nM AmpC beta lactamase.
The target of experiment [2] is T1, Beta-lactamase. As to the kind of experiment: Inhibition of 1 nM AmpC beta lactamase.
The target of experiment [3] is T1, Beta-lactamase. The experiment is described as follows: Inhibition of 30 nM AmpC beta lactamase.
Experiment [4] addresses T1, Beta-lactamase. The experiment is described as follows: Inhibition of 20 nM AmpC beta lactamase.

T1 sequence (P00811 whole entry): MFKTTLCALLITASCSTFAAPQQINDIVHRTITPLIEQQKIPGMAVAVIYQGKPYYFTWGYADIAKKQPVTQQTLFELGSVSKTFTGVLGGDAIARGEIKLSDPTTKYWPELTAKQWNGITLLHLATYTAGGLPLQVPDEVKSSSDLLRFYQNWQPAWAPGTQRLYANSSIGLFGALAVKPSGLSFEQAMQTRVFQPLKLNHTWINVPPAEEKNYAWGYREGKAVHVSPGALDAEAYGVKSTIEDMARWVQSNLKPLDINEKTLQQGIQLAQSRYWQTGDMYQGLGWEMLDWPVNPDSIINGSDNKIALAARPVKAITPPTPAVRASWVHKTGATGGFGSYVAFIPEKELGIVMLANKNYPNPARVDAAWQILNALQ

With `CC(=O)c1c(O)c(C)c(O)c(Cc2c(O)c3c(c(C(=O)/C=C/c4ccccc4)c2O)OC(C)(C)C=C3)c1O` [ROTTLERIN], the IC50 – broadly, the point on the concentration scale where inhibition reaches its midpoint – against Beta-lactamase [1] worked out at 21 µM; on Beta-lactamase [2] it was 1.8 µM; against Beta-lactamase [3] it was 76 µM.
With `O=C1OC(c2ccc(O)cc2)(c2ccc(O)cc2)c2c(I)c(I)c(I)c(I)c21` [TETRAIODOPHENOLPHTHALEINE], the figures for the IC50 against Beta-lactamase [1], against Beta-lactamase [2] and against Beta-lactamase [4] were 20 µM, 3.8 µM and 19 µM, respectively.
